One test concerns Propioni acnes 6922. As to the kind of experiment: Minimum bacteriostatic inhibitory concentration, Agar dilution method. It is filed as cell-based.
The test system of test [1] is Peptostrept. anaerob. 932. Described as above. The class given is cell-based.
For another test, the system named is Strept. pyogenes 77 A. Described as above. It is filed as cell-based.
In another test the test system is Bact. vulgatus 1446. Described as above. The class given is cell-based.
The subject of test [2] is Clostridium tetani ATCC 1940650. The settings on record: Agar dilution method. (Agar dilution tests growth on a series of plates holding different concentrations.)
Another test deals with Propioni acnes 6916. As to the kind of experiment: Minimum bacteriostatic inhibitory concentration, Agar dilution method. The class given is cell-based.
The test system of another test is Staph. aureus SG 511. The description is as above. It is filed as cell-based.
The test system of the next test is Bact. fragilis 960. Described as above. The class given is cell-based.
Test [3] concerns Clostridium perfringens 194. The settings on record: Agar dilution method.
The next test concerns Escherichia coli DC 2. Kind of test: Minimum bacteriostatic inhibitory concentration, Agar dilution method. The class given is cell-based.
In the next test the test system is Staph. aureus 503. The description is as above. It is filed as cell-based.
A further test concerns Strept. faecium D. Described as above. The class given is cell-based.
Another test deals with Strept. pyogenes 308 A. Described as above. It is filed as cell-based.
A further test has as its system Bact. fragilis 1313. The description is as above. The class given is cell-based.
The next test has as its system Staph. aureus 285. Described as above. The class given is cell-based.
The subject of another test is Bact. fragilis 312. Described as above. It is filed as cell-based.

In the case of `CC(C)CC(N)C(=O)NC1C(=O)NC(CC(N)=O)C(=O)NC2C(=O)NC3C(=O)NC(C(=O)NC(C(=O)O)c4cc(O)cc(O)c4-c4cc3ccc4O)C(OC3CC(C)(N)C(=O)C(C)O3)c3ccc(c(Cl)c3)Oc3cc2cc(c3OC2OC(CO)C(O)C(O)C2O)Oc2ccc(cc2Cl)C1O` (stereo not shown) [Desmethylbalhimycin, desmethylbalhimycin], the “Minimum bacteriostatic inhibitory concentration” value in the test on Propioni acnes 6922 is on record as 0.4 micrograms per milliliter; in [1] it was 25 micrograms per milliliter; with Strept. pyogenes 77 A, 0.05 micrograms per milliliter; in the test with Bact. vulgatus 1446, 50 micrograms per milliliter; in test [2] it was 50 micrograms per milliliter; in the test on Propioni acnes 6916, 0.8 micrograms per milliliter. Also, the “Minimum bacteriostatic inhibitory concentration” value in the test on Staph. aureus SG 511 is 0.1 micrograms per milliliter; in the test with Bact. fragilis 960 it was 25 micrograms per milliliter; in test [3] it was 0.2 micrograms per milliliter; in the test on Escherichia coli DC 2 it was 10 micrograms per milliliter; with Staph. aureus 503 it was 0.05 micrograms per milliliter; in the test with Strept. faecium D it was 0.2 micrograms per milliliter. Besides, the “Minimum bacteriostatic inhibitory concentration” value stood at 0.05 micrograms per milliliter with Strept. pyogenes 308 A, 50 micrograms per milliliter in the test on Bact. fragilis 1313, 0.1 micrograms per milliliter with Staph. aureus 285 and 100 micrograms per milliliter in the test on Bact. fragilis 312.
On to `CC(C)C[C@H](C(=O)N[C@H]1C(=O)NC(CC(N)=O)C(=O)N[C@H]2C(=O)N[C@H]3C(=O)N[C@H](C(=O)N[C@@H](C(=O)O)c4cc(O)cc(O)c4-c4cc3ccc4O)[C@H](O[C@H]3C[C@](C)(N)C(=O)[C@H](C)O3)c3ccc(c(Cl)c3)Oc3cc2cc(c3O[C@@H]2O[C@H](CO)[C@@H](O)[C@H](O)[C@H]2O)Oc2ccc(cc2Cl)[C@H]1O)N(C)C` (stereo partly shown) [Methylbalhimycin, methylbalhimycin], for which the “Minimum bacteriostatic inhibitory concentration” value is 0.4 micrograms per milliliter in the test with Propioni acnes 6922; 0.8 micrograms per milliliter in test [1]; 0.4 micrograms per milliliter in the test with Strept. pyogenes 77 A; more than 100 micrograms per milliliter with Bact. vulgatus 1446; 3.1 micrograms per milliliter in test [2]; 0.4 micrograms per milliliter in the test on Propioni acnes 6916. Moreover, the “Minimum bacteriostatic inhibitory concentration” value with Staph. aureus SG 511 is listed as 0.4 micrograms per milliliter; in the test on Bact. fragilis 960, 100 micrograms per milliliter; in test [3], 1.5 micrograms per milliliter; in the test with Escherichia coli DC 2 it was 25 micrograms per milliliter; in the test with Staph. aureus 503, 0.4 micrograms per milliliter; with Strept. faecium D, 0.8 micrograms per milliliter. For the same compound, the “Minimum bacteriostatic inhibitory concentration” value in the test on Strept. pyogenes 308 A is listed as 0.4 micrograms per milliliter; in the test with Bact. fragilis 1313, 50 micrograms per milliliter; with Staph. aureus 285 it was 0.4 micrograms per milliliter; in the test with Bact. fragilis 312 it was 100 micrograms per milliliter.
For `CC1OC(OC2c3ccc(c(Cl)c3)Oc3cc4cc(c3OC3OC(CO)C(O)C(O)C3O)Oc3ccc(cc3Cl)C(O)C(N)C(=O)NC(CC(N)=O)C(=O)NC4C(=O)NC3C(=O)NC2C(=O)NC(C(=O)O)c2cc(O)cc(O)c2-c2cc3ccc2O)CC(C)(N)C1=O` (stereo not shown) [Desmethylleucylbalhimycin, desmethylleucylbalhimycin], the “Minimum bacteriostatic inhibitory concentration” value with Propioni acnes 6922 stood at 6 micrograms per milliliter; in test [1], 50 micrograms per milliliter; in the test on Strept. pyogenes 77 A, 3 micrograms per milliliter; in the test on Bact. vulgatus 1446, 100 micrograms per milliliter; in [2], 50 micrograms per milliliter; with Propioni acnes 6916, 6 micrograms per milliliter. The “Minimum bacteriostatic inhibitory concentration” value with Staph. aureus SG 511 is listed as 3 micrograms per milliliter; with Bact. fragilis 960, 50 micrograms per milliliter; in [3], 6 micrograms per milliliter; in the test with Escherichia coli DC 2, more than 100 micrograms per milliliter; in the test with Staph. aureus 503, 6 micrograms per milliliter; in the test with Strept. faecium D it was 6 micrograms per milliliter. The “Minimum bacteriostatic inhibitory concentration” value in the test on Strept. pyogenes 308 A was found to be 12.5 micrograms per milliliter; with Bact. fragilis 1313, 100 micrograms per milliliter; with Staph. aureus 285, 6 micrograms per milliliter; with Bact. fragilis 312 it was 50 micrograms per milliliter.
Take `CC(C)CC(N)C(=O)NC1C(=O)NC(CC(N)=O)C(=O)NC2C(=O)NC3C(=O)NC(C(=O)NC(C(=O)O)c4cc(O)cc(O)c4-c4cc3ccc4O)C(OC3CC(C)(N)C(=O)C(C)O3)c3ccc(c(Cl)c3)Oc3cc2cc(c3O)Oc2ccc(cc2Cl)C1O` (stereo not shown) [Desmethyl-desglucobalhimycin, desmethyl-desglucobalhimycin]: the “Minimum bacteriostatic inhibitory concentration” value in the test on Propioni acnes 6922 is on record as 0.1 micrograms per milliliter; in test [1] it was 0.2 micrograms per milliliter; with Strept. pyogenes 77 A, 0.1 micrograms per milliliter; in the test on Bact. vulgatus 1446, more than 100 micrograms per milliliter; with Propioni acnes 6916, 0.2 micrograms per milliliter; in the test with Staph. aureus SG 511, 0.2 micrograms per milliliter. Besides, the “Minimum bacteriostatic inhibitory concentration” value in the test with Bact. fragilis 960 is reported as 25 micrograms per milliliter; in test [3], 0.1 micrograms per milliliter; with Escherichia coli DC 2, more than 100 micrograms per milliliter; in the test on Staph. aureus 503, 0.1 micrograms per milliliter; in the test with Strept. faecium D it was 0.2 micrograms per milliliter; in the test with Strept. pyogenes 308 A, 0.1 micrograms per milliliter. Also, the entries for the “Minimum bacteriostatic inhibitory concentration” value with Bact. fragilis 1313, with Staph. aureus 285 and with Bact. fragilis 312 were 50 micrograms per milliliter, 0.2 micrograms per milliliter and 50 micrograms per milliliter, respectively.
Take balhimycin V: the “Minimum bacteriostatic inhibitory concentration” value with Strept. pyogenes 77 A is given as 0.05 micrograms per milliliter; in the test with Staph. aureus SG 511, 0.4 micrograms per milliliter; with Escherichia coli DC 2, more than 100 micrograms per milliliter; with Staph. aureus 503 it was 0.1 micrograms per milliliter; with Strept. faecium D, 0.2 micrograms per milliliter; in the test on Strept. pyogenes 308 A, 0.05 micrograms per milliliter. Moreover, the “Minimum bacteriostatic inhibitory concentration” value with Staph. aureus 285 is given as 0.4 micrograms per milliliter.
Turning to balhimycin R, the “Minimum bacteriostatic inhibitory concentration” value in the test with Propioni acnes 6922 is on record as 3.1 micrograms per milliliter; in [1], 100 micrograms per milliliter; with Strept. pyogenes 77 A, 0.2 micrograms per milliliter; in the test with Bact. vulgatus 1446, more than 100 micrograms per milliliter; in test [2] it was 100 micrograms per milliliter; with Propioni acnes 6916, 6.2 micrograms per milliliter. Also, the “Minimum bacteriostatic inhibitory concentration” value with Staph. aureus SG 511 is recorded as 0.2 micrograms per milliliter; with Bact. fragilis 960, more than 100 micrograms per milliliter; with Escherichia coli DC 2, 50 micrograms per milliliter; with Staph. aureus 503 it was 0.2 micrograms per milliliter; in the test with Strept. faecium D, 0.4 micrograms per milliliter; in the test with Strept. pyogenes 308 A, 0.2 micrograms per milliliter. Besides, the “Minimum bacteriostatic inhibitory concentration” value is on record as more than 100 micrograms per milliliter in the test on Bact. fragilis 1313, 0.8 micrograms per milliliter with Staph. aureus 285 and more than 100 micrograms per milliliter in the test on Bact. fragilis 312.

For the origin of these results see US5721208A, “Glycopeptides a process for their preparation and their use” (Hoechst Aktiengesellschaft, priority 1991, dated 1998).
